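Where inhibition never reached the appropriate level, the endpoint shown equals the highest concentration tested. Otherwise, values were interpolated linearly from a five-concentration, 48-hour dose response in 96-well plates. GI50 = concentration required for 50% inhibition of growth.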 Active and inactive are the calls of the source. Cut-off read from the data, not from the text of the source: active = GI50 up to about 1.1 µM and inactive = higher.
Columns and labels:
Assay in all cases: growth of human tumour cells (NCI), 48 h
SN12C = test system: SN12C
MDA-MB-435 = test system: MDA-MB-435
CAKI-1 = test system: CAKI-1
MDA-N = test system: MDA-N
HOP-92 = test system: HOP-92
UACC-62 = test system: UACC-62
OVCAR-3 = test system: OVCAR-3
PC-3 = test system: PC-3
RPMI-8226 = test system: RPMI-8226
TK-10 = test system: TK-10
SNB-19 = test system: SNB-19
ACHN = test system: ACHN
DU-145 = test system: DU-145
IGROV-1 = test system: IGROV-1
NCI-H522 = test system: NCI-H522
SW-620 = test system: SW-620
SF-295 = test system: SF-295
SNB-75 = test system: SNB-75
HCT-15 = test system: HCT-15

SMILES	GI50 (SN12C)	GI50 (MDA-MB-435)	GI50 (CAKI-1)	GI50 (MDA-N)	GI50 (HOP-92)	GI50 (UACC-62)	GI50 (OVCAR-3)	GI50 (PC-3)	GI50 (RPMI-8226)	GI50 (TK-10)	GI50 (SNB-19)	GI50 (ACHN)	GI50 (DU-145)	GI50 (IGROV-1)	GI50 (NCI-H522)	GI50 (SW-620)	GI50 (SF-295)	GI50 (SNB-75)	GI50 (HCT-15) [µM]
COc1cc2c3c([nH]c2c(OC)c1OC)CCN(Cc1ccccc1)C3	45.6 µM (inactive)	15.6 µM (inactive)	0.787 µM (active)	16.9 µM (inactive)	6.27 µM (inactive)	32.3 µM (inactive)	64.6 µM (inactive)	55.1 µM (inactive)	18.5 µM (inactive)	21.7 µM (inactive)	3.07 µM (inactive)	47.8 µM (inactive)	> 100 µM (inactive)	57.7 µM (inactive)	> 100 µM (inactive)	1.95 µM (inactive)	30.8 µM (inactive)	42.1 µM (inactive)	31.9
COC(C)C(O)(C(=O)OCC1=CCN2CCC(O)C12)C(C)(C)O (stereo not drawn)	> 100 µM (inactive)	> 100 µM (inactive)	> 100 µM (inactive)	> 100 µM (inactive)	> 100 µM (inactive)	> 100 µM (inactive)	> 100 µM (inactive)	> 100 µM (inactive)	> 100 µM (inactive)	> 100 µM (inactive)	> 100 µM (inactive)	> 100 µM (inactive)	> 100 µM (inactive)	> 100 µM (inactive)	> 100 µM (inactive)	> 100 µM (inactive)	> 100 µM (inactive)	> 100 µM (inactive)	> 100
C=C1C(=O)O[C@@H]2[C@H]1C[C@@H](O)[C@H](C)[C@@](O)(C(=O)/C=C/C)[C@H]2OC(=O)C(C)CC (stereo partly drawn)	2.64 µM (inactive)	3.29 µM (inactive)	1.26 µM (inactive)	3.08 µM (inactive)	3.21 µM (inactive)	15.5 µM (inactive)	3.26 µM (inactive)	16.5 µM (inactive)	1.72 µM (inactive)	3.37 µM (inactive)	> 46.3 µM (inactive)	2.99 µM (inactive)	4.27 µM (inactive)	2.58 µM (inactive)	1.26 µM (inactive)	2.42 µM (inactive)	37.5 µM (inactive)	22.6 µM (inactive)	2.44
O=C1c2c(Br)sc(Br)c2C(NC(=O)C(F)(F)F)C1O (stereo not drawn)	18.7 µM (inactive)	23.5 µM (inactive)	17.5 µM (inactive)	19.1 µM (inactive)	18.8 µM (inactive)	20.3 µM (inactive)	19.3 µM (inactive)	26.1 µM (inactive)	–	> 100 µM (inactive)	24.4 µM (inactive)	29.5 µM (inactive)	20.5 µM (inactive)	20.2 µM (inactive)	13.3 µM (inactive)	17.8 µM (inactive)	18.7 µM (inactive)	27.9 µM (inactive)	16.7
CC(=O)C(CN1C(=O)c2ccccc2C1=O)C(C)=O	> 100 µM (inactive)	> 100 µM (inactive)	> 100 µM (inactive)	> 100 µM (inactive)	> 100 µM (inactive)	> 100 µM (inactive)	> 100 µM (inactive)	> 100 µM (inactive)	–	> 100 µM (inactive)	> 100 µM (inactive)	> 100 µM (inactive)	> 100 µM (inactive)	> 100 µM (inactive)	> 100 µM (inactive)	> 100 µM (inactive)	> 100 µM (inactive)	> 100 µM (inactive)	> 100
